Our source for the GI50 and TGI values is PubChem BioAssay (NCI).

SMILES strings stand for the structures.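 Method: 48-hour compound exposure of cells in 96-well plates, five concentrations, linear interpolation of endpoints. GI50 = concentration required for 50% inhibition of growth. TGI marks complete inhibition of growth.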 Bounds are passed on as bounds.

Test systems include A498 renal; A549 NSCLC; CCRF-CEM leukemia; EKVX NSCLC; HCC-2998 colon; K-562 leukemia; LOX IMVI melanoma; MALME-3M melanoma; OVCAR-3 ovarian; SNB-19 CNS.
Assay in all cases: growth of human tumour cells (NCI), 48 h

For `Cc1cc(N/N=C/c2nc(-c3ccc(Cl)cc3)oc2C)c2cc(Cl)ccc2n1`, the GI50 was 11.7 µM in the assay on A498 renal; 1.76 µM with A549 NSCLC; 1.59 µM with CCRF-CEM leukemia; 14.6 µM with EKVX NSCLC; 2.86 µM in the assay on HCC-2998 colon; 0.571 µM in the assay with K-562 leukemia. In addition, the GI50 is 2.01 µM with LOX IMVI melanoma, 1.78 µM in the assay on MALME-3M melanoma, 1.87 µM with OVCAR-3 ovarian and 3.95 µM in the assay with SNB-19 CNS. Moreover, the TGI is 25.1 µM with A498 renal; 3.6 µM in the assay with A549 NSCLC; 7.18 µM in the assay on CCRF-CEM leukemia; 28.3 µM in the assay on EKVX NSCLC; 7.32 µM in the assay with HCC-2998 colon; 2.56 µM in the assay with K-562 leukemia. Also, the TGI in the assay on LOX IMVI melanoma turned out to be 4.18 µM; in the assay on MALME-3M melanoma, 3.36 µM; in the assay on OVCAR-3 ovarian it was 3.45 µM; in the assay with SNB-19 CNS it was 16.1 µM.

Turning to `COC(=O)c1nc(N)[nH]c(=O)c1CCCCCc1c(C(=O)OC)nc(N)[nH]c1=O`, the TGI in the assay on A498 renal, in the assay on A549 NSCLC, with CCRF-CEM leukemia, with EKVX NSCLC, with HCC-2998 colon and in the assay on K-562 leukemia was over 50 µM throughout. In addition, the TGI in the assay with LOX IMVI melanoma, in the assay with MALME-3M melanoma, in the assay on OVCAR-3 ovarian and in the assay on SNB-19 CNS was over 50 µM each time.

As to `Cc1c2cc[n+](C)cc2c(C)c2c1[nH]c1ccc(O)c(OCC(F)(F)F)c12`, the TGI stood at 32 µM with A498 renal; 12.4 µM in the assay on A549 NSCLC; 28.4 µM in the assay with CCRF-CEM leukemia; 20.1 µM in the assay on EKVX NSCLC; 46.4 µM with HCC-2998 colon; 17 µM in the assay with K-562 leukemia. The TGI stood at 46.5 µM with LOX IMVI melanoma, 8.47 µM in the assay on MALME-3M melanoma, 7.4 µM in the assay on OVCAR-3 ovarian and 5.33 µM in the assay on SNB-19 CNS.

`CC1CCN(CC(=O)N2c3ccccc3Sc3cc4ccccc4cc32)CC1`: the TGI with A498 renal, in the assay with A549 NSCLC, with CCRF-CEM leukemia, in the assay on EKVX NSCLC, in the assay with HCC-2998 colon and in the assay on K-562 leukemia was over 100 µM in each case. Also, the TGI with LOX IMVI melanoma, with MALME-3M melanoma, with OVCAR-3 ovarian and in the assay with SNB-19 CNS was over 100 µM in each case.

Consider `O=[N+]([O-])c1ccc2c(c1)[O][Sn][O]2`, for which the GI50 is over 150 µg/mL in the assay on A498 renal; over 150 µg/mL in the assay with A549 NSCLC; 17.6 µg/mL in the assay with CCRF-CEM leukemia; over 150 µg/mL with EKVX NSCLC; over 150 µg/mL in the assay on HCC-2998 colon; 40.2 µg/mL in the assay on K-562 leukemia. Further, the GI50 in the assay with LOX IMVI melanoma was 66.5 µg/mL; in the assay with MALME-3M melanoma, 149 µg/mL; in the assay on OVCAR-3 ovarian, 48.1 µg/mL; with SNB-19 CNS, 55.2 µg/mL. Also, the TGI in the assay with A498 renal, with A549 NSCLC, in the assay with CCRF-CEM leukemia, in the assay with EKVX NSCLC, with HCC-2998 colon and with K-562 leukemia was over 150 µg/mL throughout. For the same compound, the TGI in the assay on LOX IMVI melanoma, with MALME-3M melanoma, in the assay with OVCAR-3 ovarian and in the assay on SNB-19 CNS was over 150 µg/mL in each case.

As for `C[C@]12CC[C@@H]3c4ccc(O)cc4C(O)C[C@H]3[C@@H]1CCC2=O` (stereo not given in full), the GI50 in the assay on A498 renal was 76.2 µM; in the assay with A549 NSCLC, over 100 µM; in the assay with CCRF-CEM leukemia, over 100 µM; with EKVX NSCLC, 48.8 µM; with HCC-2998 colon, 84.2 µM; in the assay with K-562 leukemia, over 100 µM. Further, the GI50 in the assay with LOX IMVI melanoma, in the assay with MALME-3M melanoma, in the assay on OVCAR-3 ovarian and with SNB-19 CNS was over 100 µM throughout. Besides, the TGI with A498 renal, in the assay on A549 NSCLC, in the assay with CCRF-CEM leukemia, in the assay on EKVX NSCLC, in the assay with HCC-2998 colon and in the assay with K-562 leukemia was over 100 µM in each case. Besides, the TGI with LOX IMVI melanoma, in the assay on MALME-3M melanoma, in the assay with OVCAR-3 ovarian and with SNB-19 CNS was over 100 µM throughout.

Consider `CN1C(=O)C(Cl)(C(Cl)(Cl)S(=O)(=O)O)C(=O)c2ccccc21` (stereo not given), for which the TGI in the assay on A498 renal, in the assay with A549 NSCLC, with CCRF-CEM leukemia, in the assay with EKVX NSCLC, with HCC-2998 colon and in the assay on K-562 leukemia was over 100 µM in each case. Besides, the TGI in the assay with LOX IMVI melanoma was over 100 µM; in the assay on MALME-3M melanoma it was 76.1 µM; in the assay with OVCAR-3 ovarian it was over 100 µM; in the assay on SNB-19 CNS, over 100 µM.

Take `O=C1CC(=O)OC(c2ccc([N+](=O)[O-])cc2)O1`: the GI50 with A498 renal was 2.76 µM; with A549 NSCLC it was 2.6 µM; with CCRF-CEM leukemia, 2.45 µM; in the assay on EKVX NSCLC, 3.56 µM; in the assay with HCC-2998 colon, 1.76 µM; with K-562 leukemia, 2.56 µM. Also, the GI50 in the assay on LOX IMVI melanoma was 1.68 µM; in the assay with MALME-3M melanoma, 2.28 µM; in the assay on OVCAR-3 ovarian it was 1.77 µM; with SNB-19 CNS it was 3.43 µM. Moreover, the TGI in the assay on A498 renal is 7.72 µM; with A549 NSCLC, 7.78 µM; in the assay with CCRF-CEM leukemia, 8.79 µM; with EKVX NSCLC, 18.3 µM; in the assay on HCC-2998 colon it was 3.18 µM; with K-562 leukemia it was over 100 µM. Also, the TGI amounted to 3.17 µM in the assay with LOX IMVI melanoma, 7.02 µM with MALME-3M melanoma, 3.37 µM with OVCAR-3 ovarian and 12.3 µM in the assay on SNB-19 CNS.

With `COC(=O)CCC1=C(C)/C(=C/c2[nH]c(-c3ccc[nH]3)cc2OC)N=C1C`, the GI50 in the assay on A498 renal is 4.71 µM; in the assay on A549 NSCLC, 0.565 µM; with CCRF-CEM leukemia, 0.306 µM; with EKVX NSCLC, 1.46 µM; in the assay with HCC-2998 colon, 1.37 µM; with K-562 leukemia it was 0.374 µM. Further, the GI50 is 0.17 µM in the assay with LOX IMVI melanoma, 1.14 µM in the assay on MALME-3M melanoma, 0.397 µM in the assay with OVCAR-3 ovarian and 2.02 µM with SNB-19 CNS. The TGI came to 18.5 µM in the assay with A498 renal; 6.32 µM in the assay with A549 NSCLC; 6.5 µM in the assay on CCRF-CEM leukemia; 10.8 µM in the assay with EKVX NSCLC; 6.73 µM in the assay with HCC-2998 colon; 4.9 µM in the assay with K-562 leukemia. Also, the TGI in the assay with LOX IMVI melanoma is 0.612 µM; in the assay on MALME-3M melanoma it was 3.27 µM; with OVCAR-3 ovarian it was 1.7 µM; with SNB-19 CNS it was 17.5 µM.
